Experimental findings from US20100179093A1, “Neoropeptide-2-Receptor (Y-2R) Agonists” (priority 2008, published 2010) are described below.

Like-named read-outs stand apart in the source and are kept apart here.

Holding throughout (type): cell-based
One assay has as its target T1, Y5R (Homo sapiens, UniProt Q15761).
T1 sequence (Q15761 1-445): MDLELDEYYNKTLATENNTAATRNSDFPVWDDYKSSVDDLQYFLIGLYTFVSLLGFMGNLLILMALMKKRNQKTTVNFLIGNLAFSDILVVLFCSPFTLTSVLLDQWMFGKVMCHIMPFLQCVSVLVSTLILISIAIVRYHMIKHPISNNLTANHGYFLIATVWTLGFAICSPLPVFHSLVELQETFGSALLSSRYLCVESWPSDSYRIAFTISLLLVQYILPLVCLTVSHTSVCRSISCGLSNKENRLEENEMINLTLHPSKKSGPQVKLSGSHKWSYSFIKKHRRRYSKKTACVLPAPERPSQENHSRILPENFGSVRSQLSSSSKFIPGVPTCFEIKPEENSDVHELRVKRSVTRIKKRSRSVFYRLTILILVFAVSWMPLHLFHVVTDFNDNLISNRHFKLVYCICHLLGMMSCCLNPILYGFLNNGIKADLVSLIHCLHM
As to the kind of experiment: CaFlux Assay (FLIPR), Y5R.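 On Emax: percent of the maximal response of the positive control agonist.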 The following applies: for Emax: read-out: Y5R FLIPR, percentage in parentheses under the EC50.

In a further assay the target is T2, Y1R (Homo sapiens, UniProt P25929).
T2 sequence (P25929 1-384): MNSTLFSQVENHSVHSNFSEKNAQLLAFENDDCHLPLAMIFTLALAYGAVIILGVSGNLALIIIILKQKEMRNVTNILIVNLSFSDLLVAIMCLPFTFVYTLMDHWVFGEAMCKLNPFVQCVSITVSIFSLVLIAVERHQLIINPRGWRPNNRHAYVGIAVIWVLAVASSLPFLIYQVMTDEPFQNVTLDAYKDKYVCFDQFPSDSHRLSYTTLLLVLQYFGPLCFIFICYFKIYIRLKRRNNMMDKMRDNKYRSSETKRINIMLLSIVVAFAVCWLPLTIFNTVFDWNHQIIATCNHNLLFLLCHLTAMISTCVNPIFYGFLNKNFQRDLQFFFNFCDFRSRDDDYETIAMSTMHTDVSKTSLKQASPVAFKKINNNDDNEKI
The assay is described as follows: CaFlux Assay (FLIPR), Y1R.

A further assay deals with Y4R (Homo sapiens, UniProt P50391). As to the kind of experiment: CaFlux Assay (FLIPR), Y4R.
Sequence of Y4R (P50391 whole entry): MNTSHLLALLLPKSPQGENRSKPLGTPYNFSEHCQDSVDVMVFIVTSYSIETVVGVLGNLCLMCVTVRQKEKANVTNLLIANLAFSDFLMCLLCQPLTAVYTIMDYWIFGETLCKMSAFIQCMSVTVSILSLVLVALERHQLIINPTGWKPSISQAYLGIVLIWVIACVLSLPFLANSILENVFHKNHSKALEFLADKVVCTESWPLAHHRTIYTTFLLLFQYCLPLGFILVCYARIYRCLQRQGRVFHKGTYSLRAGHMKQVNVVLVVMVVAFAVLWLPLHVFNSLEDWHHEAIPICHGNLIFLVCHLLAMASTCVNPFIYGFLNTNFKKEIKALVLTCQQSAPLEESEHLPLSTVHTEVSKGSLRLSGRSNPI
In assay [1] the target is T3, hNPY2R (Homo sapiens, UniProt P49146).
T3 sequence (P49146 1-381): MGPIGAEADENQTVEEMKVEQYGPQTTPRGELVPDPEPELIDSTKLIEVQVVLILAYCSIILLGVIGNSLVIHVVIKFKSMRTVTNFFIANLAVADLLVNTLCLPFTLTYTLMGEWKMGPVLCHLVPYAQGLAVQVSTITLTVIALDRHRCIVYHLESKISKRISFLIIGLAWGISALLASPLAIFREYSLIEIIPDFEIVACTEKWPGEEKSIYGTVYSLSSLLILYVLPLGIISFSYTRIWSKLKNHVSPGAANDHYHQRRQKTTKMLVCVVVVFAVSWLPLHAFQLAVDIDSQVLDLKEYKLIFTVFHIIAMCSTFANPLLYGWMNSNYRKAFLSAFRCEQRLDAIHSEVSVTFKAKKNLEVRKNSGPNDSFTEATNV
As to the kind of experiment: cAMP Agonist Assay, HEK293/hNPY2R cells. The arrangement: expressed in transfected cells; host or cells: HEK293/hNPY2R (G418 selection).

The target in assay [2] is T3, hNPY2R. The assay is described as follows: CaFlux Assay (FLIPR), Y2R. Further details: expressed in transfected cells; host or cells: HEK-293 stably expressing G protein chimera Gaqi9.

Usually EC50 stands for the concentration needed to bring the measured effect to its halfway point. As to `CCCCCCCCCCCCCCCCCCCC(=O)NCCOCCNC(=O)CCC(=O)NCCCC[C@H](NC(=O)[C@@H](N)[C@@H](C)CC)C(=O)N1CCN(c2ccc3ncn(CC(=O)N[C@@H](CCCNC(=N)N)C(=O)N[C@@H](Cc4c[nH]cn4)C(=O)N[C@@H](Cc4ccc(O)cc4)C(=O)N[C@@H](CC(C)C)C(=O)N[C@@H](CC(N)=O)C(=O)N[C@@H](Cc4c[nH]c5ccccc45)C(=O)N[C@H](C(=O)N[C@H](C(=O)N[C@@H](CCCNC(=N)N)C(=O)N[C@@H](CCC(N)=O)C(=O)N(C)[C@@H](CCCNC(=N)N)C(=O)N[C@@H](Cc4ccc(O)cc4)C(N)=O)[C@@H](C)O)C(C)C)c(=O)c3c2)CC1` [Example 39], the EC50 at Y5R is 285 nM; on Y1R, above 5000 nM; at Y4R, above 5000 nM; at hNPY2R [1], 0.21 nM; at hNPY2R [2], 0.073 nM. Besides, on Y5R, the Emax is 50%.
With `CCCCCCCCCCCCCCCC(=O)NCCCCCC(=O)N[C@H](C(=O)N[C@@H](CCCCN)C(=O)N1CCN(c2ccc3ncn(CC(=O)N[C@@H](CCCNC(=N)N)C(=O)N[C@@H](Cc4c[nH]cn4)C(=O)N[C@@H](Cc4ccc(O)cc4)C(=O)N[C@@H](CC(C)C)C(=O)N[C@@H](CC(N)=O)C(=O)N[C@@H](Cc4c[nH]c5ccccc45)C(=O)N[C@H](C(=O)N[C@H](C(=O)N[C@@H](CCCNC(=N)N)C(=O)N[C@@H](CCC(N)=O)C(=O)N(C)[C@@H](CCCNC(=N)N)C(=O)N[C@@H](Cc4ccc(O)cc4)C(N)=O)[C@@H](C)O)C(C)C)c(=O)c3c2)CC1)[C@@H](C)CC` [Example 16], the 50% effective concentration (EC50) at Y5R is 544 nM; on Y1R, above 5000 nM; at Y4R, 13700 nM; on hNPY2R [1] it was 0.23 nM; at hNPY2R [2] it was 0.18 nM.
With `CCCCCCCCCCCCCCCC(=O)N[C@@H](CCC(=O)O)C(=O)N[C@@H](CCC(=O)O)C(=O)NCCCC[C@H](NC(=O)[C@@H](N)[C@@H](C)CC)C(=O)N1CCN(c2ccc3ncn(CC(=O)N[C@@H](CCCNC(=N)N)C(=O)N[C@@H](Cc4c[nH]cn4)C(=O)N[C@@H](Cc4ccc(O)cc4)C(=O)N[C@@H](CC(C)C)C(=O)N[C@@H](CC(N)=O)C(=O)N[C@@H](Cc4c[nH]c5ccccc45)C(=O)N[C@H](C(=O)N[C@H](C(=O)N[C@@H](CCCNC(=N)N)C(=O)N[C@@H](CCC(N)=O)C(=O)N(C)[C@@H](CCCNC(=N)N)C(=O)N[C@@H](Cc4ccc(O)cc4)C(N)=O)[C@@H](C)O)C(C)C)c(=O)c3c2)CC1` [Example 23], the EC50 is 459 nM on Y5R (FLIPR, read-out: Y5R EC50 (nM) FLIPR); above 5000 nM on Y1R (FLIPR, read-out: Y1R EC50 (nM) FLIPR); above 5000 nM on Y4R (FLIPR, read-out: Y4R EC50 (nM) FLIPR); 0.29 nM on hNPY2R [1] (HEK293/hNPY2R, Forskolin 5 μM, read-out: Y2R EC50 (nM) cAMP); 0.033 nM on hNPY2R [2] (FLIPR calcium flux, Hek-293 cells with Gaqi9 and human NPY2 receptor, read-out: Y2R EC50 (nM) FLIRR). Moreover, the Emax on Y5R worked out at 70%.
As to `CCCCCCCCCCCCCCCC(=O)NCCC(=O)NCCCC[C@H](NC(=O)[C@@H](N)[C@@H](C)CC)C(=O)N1CCN(c2ccc3ncn(CC(=O)N[C@@H](CCCNC(=N)N)C(=O)N[C@@H](Cc4c[nH]cn4)C(=O)N[C@@H](Cc4ccc(O)cc4)C(=O)N[C@@H](CC(C)C)C(=O)N[C@@H](CC(N)=O)C(=O)N[C@@H](Cc4c[nH]c5ccccc45)C(=O)N[C@H](C(=O)N[C@H](C(=O)N[C@@H](CCCNC(=N)N)C(=O)N[C@@H](CCC(N)=O)C(=O)N(C)[C@@H](CCCNC(=N)N)C(=O)N[C@@H](Cc4ccc(O)cc4)C(N)=O)[C@@H](C)O)C(C)C)c(=O)c3c2)CC1` [Example 20], the EC50 on Y5R is 1880 nM; on Y1R it was above 5000 nM; at Y4R it was above 5000 nM; on hNPY2R [1], 0.26 nM; at hNPY2R [2], 0.015 nM.
For `CCCCCCCCCCCCCCCCCCCC(=O)N[C@H](C(=O)N[C@H](C(=O)NCCCC[C@H](NC(=O)[C@@H](N)[C@@H](C)CC)C(=O)N1CCN(c2ccc3ncn(CC(=O)N[C@@H](CCCNC(=N)N)C(=O)N[C@@H](Cc4c[nH]cn4)C(=O)N[C@@H](Cc4ccc(O)cc4)C(=O)N[C@@H](CC(C)C)C(=O)N[C@@H](CC(N)=O)C(=O)N[C@@H](Cc4c[nH]c5ccccc45)C(=O)N[C@H](C(=O)N[C@H](C(=O)N[C@@H](CCCNC(=N)N)C(=O)N[C@@H](CCC(N)=O)C(=O)N(C)[C@@H](CCCNC(=N)N)C(=O)N[C@@H](Cc4ccc(O)cc4)C(N)=O)[C@@H](C)O)C(C)C)c(=O)c3c2)CC1)[C@@H](C)O)[C@@H](C)O` [Example 43], the EC50 is 243 nM at Y5R; above 5000 nM at Y1R; above 5000 nM at Y4R; 0.26 nM at hNPY2R [1]; 0.074 nM at hNPY2R [2]. Moreover, on Y5R, the Emax was 23%.
Turning to `CCCCCCCCCCCCCCCC(=O)N[C@@H](CCC(=O)NCCCC[C@H](NC(=O)[C@@H](N)[C@@H](C)CC)C(=O)N1CCN(c2ccc3ncn(CC(=O)N[C@@H](CCCNC(=N)N)C(=O)N[C@@H](Cc4c[nH]cn4)C(=O)N[C@@H](Cc4ccc(O)cc4)C(=O)N[C@@H](CC(C)C)C(=O)N[C@@H](CC(N)=O)C(=O)N[C@@H](Cc4c[nH]c5ccccc45)C(=O)N[C@H](C(=O)N[C@H](C(=O)N[C@@H](CCCNC(=N)N)C(=O)N[C@@H](CCC(N)=O)C(=O)N(C)[C@@H](CCCNC(=N)N)C(=O)N[C@@H](Cc4ccc(O)cc4)C(N)=O)[C@@H](C)O)C(C)C)c(=O)c3c2)CC1)C(=O)O` [Example 24], the EC50 at Y5R was 168 nM; at Y1R it was above 5000 nM; at Y4R, above 5000 nM; at hNPY2R [1] it was 0.21 nM; at hNPY2R [2], 0.039 nM. Besides, the Emax at Y5R came to 70%.
Take `CCCCCCCCCCCC(=O)NCCCCCC(=O)NCCCC[C@H](NC(=O)[C@@H](N)[C@@H](C)CC)C(=O)N1CCN(c2ccc3ncn(CC(=O)N[C@@H](CCCNC(=N)N)C(=O)N[C@@H](Cc4c[nH]cn4)C(=O)N[C@@H](Cc4ccc(O)cc4)C(=O)N[C@@H](CC(C)C)C(=O)N[C@@H](CC(N)=O)C(=O)N[C@@H](Cc4c[nH]c5ccccc45)C(=O)N[C@H](C(=O)N[C@H](C(=O)N[C@@H](CCCNC(=N)N)C(=O)N[C@@H](CCC(N)=O)C(=O)N(C)[C@@H](CCCNC(=N)N)C(=O)N[C@@H](Cc4ccc(O)cc4)C(N)=O)[C@@H](C)O)C(C)C)c(=O)c3c2)CC1` [Example 9]: the EC50 at Y5R was 3790 nM; on Y1R it was above 5000 nM; on Y4R it was 2450 nM; on hNPY2R [1], 3.5 nM; on hNPY2R [2], 0.031 nM.
As to `CCCCCCCCCCCCCCCC(=O)NCCCC[C@H](NC(=O)[C@@H](NC(C)=O)[C@@H](C)CC)C(=O)N1CCN(c2ccc3ncn(CC(=O)N[C@@H](CCCNC(=N)N)C(=O)N[C@@H](Cc4c[nH]cn4)C(=O)N[C@@H](Cc4ccc(O)cc4)C(=O)N[C@@H](CC(C)C)C(=O)N[C@@H](CC(N)=O)C(=O)N[C@@H](Cc4c[nH]c5ccccc45)C(=O)N[C@H](C(=O)N[C@H](C(=O)N[C@@H](CCCNC(=N)N)C(=O)N[C@@H](CCC(N)=O)C(=O)N(C)[C@@H](CCCNC(=N)N)C(=O)N[C@@H](Cc4ccc(O)cc4)C(N)=O)[C@@H](C)O)C(C)C)c(=O)c3c2)CC1` [Example 13], the EC50 on Y5R stood at 9380 nM; at Y1R, 29200 nM; on Y4R, 32200 nM; at hNPY2R [1], 1.2 nM; at hNPY2R [2], 1.31 nM.
